“And” between values parts separate entries of the source, which are not always exact repeats. Equal entries are not always repeated. Where two headings read alike, the source gives them in different places. Values belong to the molecule of their own block, whether it stands above or below them.
Experiments:
OATP4C1 = target: T1, OATP4C1 (Homo sapiens, UniProt Q6ZQN7); assay: Inhibition of OATP4C1-mediated T3 uptake in OATP4C1/MDCKII cells; conditions: for inhibition at 10 min, 100 µM / inhibition at 10 min, 50 µM: human, pH 7.4, probe T3 (1 µM); for alteration of OATP4C1-mediated transport (in words): 100 µM (theaflavin 50 µM); for inhibition at 10 min, 50 µM: curcumin inhibition of OATP4C1-mediated transport, 50 µM curcumin
T1 sequence (Q6ZQN7 1-724): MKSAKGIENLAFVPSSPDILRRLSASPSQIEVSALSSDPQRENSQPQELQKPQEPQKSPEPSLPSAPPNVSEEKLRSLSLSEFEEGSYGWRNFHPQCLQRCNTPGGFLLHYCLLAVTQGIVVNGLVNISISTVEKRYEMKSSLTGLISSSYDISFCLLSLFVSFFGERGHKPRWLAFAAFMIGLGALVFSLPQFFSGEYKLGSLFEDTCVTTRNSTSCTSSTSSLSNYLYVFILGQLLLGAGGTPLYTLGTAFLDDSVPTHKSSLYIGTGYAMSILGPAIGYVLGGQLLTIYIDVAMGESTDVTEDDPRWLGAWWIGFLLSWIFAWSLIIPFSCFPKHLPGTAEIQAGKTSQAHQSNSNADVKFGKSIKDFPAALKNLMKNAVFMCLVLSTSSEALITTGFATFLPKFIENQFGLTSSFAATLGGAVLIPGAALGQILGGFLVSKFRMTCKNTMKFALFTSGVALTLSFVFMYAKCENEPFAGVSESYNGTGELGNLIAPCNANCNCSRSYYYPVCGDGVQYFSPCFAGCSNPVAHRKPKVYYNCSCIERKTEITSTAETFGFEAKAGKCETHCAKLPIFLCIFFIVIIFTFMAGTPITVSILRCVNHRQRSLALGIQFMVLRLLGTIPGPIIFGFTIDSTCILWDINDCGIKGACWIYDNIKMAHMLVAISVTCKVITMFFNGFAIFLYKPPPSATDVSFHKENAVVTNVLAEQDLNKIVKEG

OAT1 = conditions: Supplementary table, cited from earlier work
OAT3 = conditions: Supplementary table, cited from earlier work
OATP1B1 = conditions: cited from earlier work; for OATP1B1 inhibition degree: ref 1 of the supplement
OATP1B3 = conditions: cited from earlier work; for IC50: read-out: OATP1B3 IC50
OATP2B1 = conditions: Supplementary table, ref previous reports (superscript numbers), cited from earlier work; for IC50: read-out: OATP2B1 IC50
[1] = OATP4C1 inhibition degree, 100 µM, Supplementary table
[2] = read-out: OATP1B1 IC50, Supplementary table, ref previous reports (superscript numbers)
[3] = Supplementary table, ref previous reports (superscript numbers)
[4] = ref previous reports (superscript numbers)

Structure (SMILES): Oc1cc(O)c2cc(O)c(-c3ccc(O)c(O)c3)[o+]c2c1 [Cyanidin, Cyanidin chloride]
OATP4C1 inhibition or elevation (class) (OATP4C1; Supplementary table): Yes
inhibition at 10 min, 100 µM (OATP4C1; [1]): 24%

Structure (SMILES): O=C(O[C@@H]1Cc2c(O)cc(O)cc2O[C@@H]1c1cc(O)c(O)c(O)c1)c1cc(O)c(O)c(O)c1 [EGCG, epigallocatechin-3-gallate]
Ki (OAT1; ref 27 of the supplement, read-out: OAT1 Ki (asterisk)): 334 ± 58 µM
Ki (OAT3; ref 27 of the supplement, read-out: OAT3 Ki (asterisk)): 162 ± 29 µM
IC50 (OATP1B1; [2]): 14.1 µM and 7.8 µM
OATP1B3 inhibition or elevation (class) (OATP1B3; Supplementary table, ref 25 of the supplement): Elevation
IC50 (OATP1B3; [3]): 8.4 ± 0.6 µM
EC50 (OATP1B3; read-out: OATP1B3 elevation EC50, mean ± S.E., ref 25 of the supplement): 10.5 ± 1.6 µM
IC50 (OATP2B1): 101 ± 9 µM
alteration of OATP4C1-mediated transport (in words) (OATP4C1; 1 µM T3, 10 min, without AA): did not inhibit
OATP4C1 inhibition or elevation (class) (OATP4C1; Supplementary table): No

Structure (SMILES): COc1ccc([C@@H]2CC(=O)c3c(O)cc(O[C@@H]4O[C@H](CO[C@@H]5O[C@@H](C)[C@H](O)[C@@H](O)[C@H]5O)[C@@H](O)[C@H](O)[C@H]4O)cc3O2)cc1O [Hesperidin, hesperidin]
OATP4C1 inhibition or elevation (class) (OATP4C1; Supplementary table): No

Structure (SMILES): O=c1c(O[C@@H]2O[C@H](CO)[C@H](O)[C@H](O)[C@H]2O)c(-c2ccc(O)c(O)c2)oc2cc(O)cc(O)c12 [Hyperoside]
IC50 (OATP2B1): 29.4 ± 1.5 µM
OATP4C1 inhibition or elevation (class) (OATP4C1; Supplementary table): No

Structure (SMILES): O=c1c(O)c(-c2cc(O)c(O)c(O)c2)oc2cc(O)cc(O)c12 [Myricetin, myricetin]
OATP4C1 inhibition or elevation (class) (OATP4C1; Supplementary table): No

Structure (SMILES): C[C@@H]1O[C@@H](O[C@H]2[C@H](Oc3cc(O)c4c(c3)O[C@H](c3ccc(O)cc3)CC4=O)O[C@H](CO)[C@@H](O)[C@@H]2O)[C@H](O)[C@H](O)[C@H]1O [Naringin, naringin]
OATP1B1 inhibition degree (OATP1B1; 250 µM): < 50%
OATP1B1 inhibition or elevation (class) (OATP1B1; [3]): Yes
IC50 (OATP1B3; [3]): 197.5 ± 1.1 µM
OATP4C1 inhibition or elevation (class) (OATP4C1; Supplementary table): No

Structure (SMILES): C[C@@H]1O[C@@H](OC[C@H]2O[C@@H](Oc3c(-c4ccc(O)c(O)c4)oc4cc(O)cc(O)c4c3=O)[C@H](O)[C@@H](O)[C@@H]2O)[C@H](O)[C@H](O)[C@H]1O [Rutin, rutin]
OATP1B1 elevation degree (OATP1B1; 50 µM, ref 2 of the supplement): 81.1%
OATP1B1 inhibition degree (OATP1B1; 150 µM): < 50%
OATP1B1 inhibition or elevation (class) (OATP1B1; [3]): Elevation
IC50 (OATP1B3; [3]): 111.5 ± 1.1 µM
IC50 (OATP2B1): 60.7 ± 1.2 µM
OATP4C1 inhibition or elevation (class) (OATP4C1; Supplementary table): No

Structure (SMILES): O=C(O)/C=C/c1ccc(O)c(O)c1 [caffeic acid, Caffeic acid]
alteration of OATP4C1-mediated transport (in words) (OATP4C1; 1 µM T3, 10 min, without AA): did not inhibit
OATP4C1 inhibition or elevation (class) (OATP4C1; Supplementary table): No

Now from value to molecule, other results behind:

alteration of OATP4C1-mediated transport (in words) (OATP4C1; 1 µM T3, 10 min, without AA): did not inhibit
OATP4C1 inhibition or elevation (class) (OATP4C1; Supplementary table): No
Structure (SMILES): O=c1c(O)cc([C@H]2Oc3cc(O)cc(O)c3C[C@H]2O)cc2c([C@H]3Oc4cc(O)cc(O)c4C[C@H]3O)cc(O)c(O)c12 [Theaflavin, theaflavin]
Ki (OATP2B1; read-out: OATP2B1 Ki (asterisk)): 8.2 ± 1.7 µM

inhibition of OATP4C1-mediated transport (OATP4C1; 100 µM compound, 1 µM T3, 10 min, 37 °C, without AA): 66%
OATP4C1 inhibition or elevation (class) (OATP4C1; Supplementary table): Yes
inhibition at 10 min, 100 µM (OATP4C1; [1]): 54%
inhibition at 10 min, 100 µM (OATP4C1; inhibition of OATP4C1-mediated transport, 100 µM compound, 1 µM T3, 10 min, 37 °C, without AA): ≥ 50%
Structure (SMILES): O=c1cc(-c2ccc(O)cc2)oc2cc(O)cc(O)c12 [apigenin]
IC50 (OAT1; [4]): 0.212 ± 0.01 µM
IC50 (OAT3; [4]): 0.41 ± 0.157 µM
IC50 (OATP1B1; [2]): 53.4 ± 2.1 µM
Ki (OATP1B1; read-out: OATP1B1 Ki (asterisk), Supplementary table, ref previous reports (superscript numbers)): 0.6 ± 0.2 µM
Ki (OATP1B3; read-out: OATP1B3 Ki (asterisk), Supplementary table, ref previous reports (superscript numbers)): 16.7 ± 1.6 µM

inhibition at 10 min, 50 µM (OATP4C1; absence of AA, 1 µM T3, 10 min): 33%
inhibition at 10 min, 50 µM (OATP4C1; presence of 10, 100 and 1000 µM AA, 1 µM T3, 10 min): 63 to 67%
Structure (SMILES): COc1cc(/C=C/C(=O)CC(=O)/C=C/c2ccc(O)c(OC)c2)ccc1O [curcumin]
IC50 (OATP1B1; read-out: IC50 OATP1B1 transport, no antioxidant used): 3.8 µM
IC50 (OATP1B1; [2]): 3.81 µM
